{"source": "patent US20190160016A1", "about": "“Anti-Parasitic Compositions and Methods” (University of Canberra, priority 2016, published 2019)", "key": {"[1]": {"system": "Sarcoptes scabiei nits", "test": "ovicidal activity against scabies eggs (hatching rate)", "method": "To determine the ovicidal activity of Manuka oil and its fraction, dilutions to 2.5% and 5% were made in olive oil. […] Six independent experiments were conducted on separate days."}, "[2]": {"system": "P. humanus capitis adults and nymphs", "test": "filter paper diffusion bioassay, pediculicidal activity", "settings": "mean individual louse survival time, in vitro pediculicidal treatment", "excerpt": "Adults, nymphs, and nits of P. humanus capitis were collected from a population of children between the ages of 3 and 12, with the approval of their guardians, by raking a metal louse comb through sections of the scalp. Adult and nymph lice as well as nits (eggs) were obtained and pooled by carefully removing them from the metal teeth of the comb into clean plastic boxes. The children had not been treated with any pediculicide solution for at least the preceding month, using only the louse comb.\nFor testing the pediculicidal activity, a filter paper diffusion bioassay was made with adults and nymphs of the insect collected from heads no more than 4 hours before carrying out the assay. After careful selection under a dissecting microscope, 10 lice in a ratio of 8:2 adult:nymph III were placed on a filter paper disk (Whatman No 1; 9-cm diameter) on the lid of a Petri dish. Next, 0.5 ml of either (a) each test solution; (b) distilled water with Tween-20 (control); and (c) distilled water, Tween-20, and preserving agents (excipient control), were spread over the lice and filter paper for each group. The commercial lotions (containing tea tree oil and permethrin as chief active components) (0.5 ml) were simultaneously run as a positive controls. Three to nine replicates were conducted for each treatment. […] The number of dead lice were recorded for each dish."}}}
{"smiles": "CC[C@H](C)[C@H]1O[C@]2(CC[C@@H]1C)C[C@@H]1C[C@@H](C/C=C(\\C)[C@@H](O[C@H]3C[C@H](OC)[C@@H](O[C@H]4C[C@H](OC)[C@@H](O)[C@H](C)O4)[C@H](C)O3)[C@@H](C)/C=C/C=C3\\CO[C@@H]4[C@H](O)C(C)=C[C@@H](C(=O)O1)[C@]34O)O2", "note": "[Ivermectin (100 μ/μL), ivermectin]", "values": [{"measurement": "Percentage inhibition, Day 4", "setting": "[1]; Day 4", "result": "12.4 ± 5.0", "unit": "%"}, {"measurement": "Percentage inhibition, Day 8", "setting": "[1]; Day 8", "result": "9.8 ± 4.8", "unit": "%"}, {"measurement": "ovicidal activity (in words)", "setting": "[1]; nymph emergence, Table 2", "result": "poor ovicidal activity"}]}
{"smiles": "CC1(C)C(C=C(Cl)Cl)C1C(=O)OCc1cccc(Oc2ccccc2)c1", "note": "(stereo not shown) [Permethrin, permethrin]", "values": [{"measurement": "Mean survival time", "setting": "[2]", "result": 56.4, "unit": "min"}]}
